From patent US9593149B2, “Amylin and calcitonin receptor agonist” (Novo Nordisk A/S, priority 2014, dated 2017) come the findings set out here.

Data set [1] is described as follows: Assay (XV) subcutaneous PK in LYD-pigs, co-formulated or co-dosed with liraglutide. It counts as in vivo. The note with it: for AUC/D / Cmax/D / T½: LYD-pigs s.c. As for the experimental part:
The studies were performed in female LYD pigs of SPF origin delivered from Lars Jonson, Hillerødvej 70, Lynge.
Before the animals arrived, the animal rooms and pens were cleaned and disinfected with Virkon S. During the study, the animal rooms were cleaned and washed regularly.
The pigs were group housed during the acclimatisation period. The pigs were fitted with a central venous catheter while under anaesthesia and after the single housed after catheterization in pens ≧3.1 m^2 with straw as bedding. The temperature in the rooms was set at 20−23° C. and the relative humidity to 30-70%. The rooms were illuminated to give a cycle of 12 hours light and 12 hours darkness. Light was on from 07.00 to 19.00 h.
The formulations was prepared similarly and filled in cartridges in all cases.
The animals were dosed subcutaneously as follows.
The s.c. dosing was performed in 4 mm depth, in a site of injection which was secured on beforehand by ultrasound to avoid muscular tissue or heavy vascularization. Dosing was made using NovoPen®4 and needle Novofine 28 G and a needle stopper to ensure 4 mm depth of injection. The needle was kept in the subcutis for 10 seconds after the injection to secure deposition of compound. […] The co-formulation was administered as one injection. Study was performed as a cross over study with adequate wash out between dosings.
Blood was sampled at predefined time points for up till 15 days post dosing to adequately cover the full plasma concentration-time profile of the mimylin derivative. Blood samples were drawn from a central venous catheter to jugularis made through the catheter which was afterwards flushed with 10 ml 0.9% NaCl.
For each blood sampling time point approximately 0.8 mL of whole blood was collected in a 1.5 mL EDTA coated tube, and the tube was gently turned to allowing mixing of the sample with the anticoagulant. Blood samples (for example 0.8 mL) were collected in EDTA buffer (8 mM) and then centrifuged at 4° C. and 2000 G for 10 minutes. Plasma was pipetted into Micronic tubes on dry ice, and kept at −20° C. until analysis.
Individual plasma concentration-time profiles were analysed by a non-compartmental model in Phoenix WinNonlin version 6.3 (Pharsight Inc., Mountain View, Calif., USA).
The area under the plasma concentration versus time curve (AUC, [time×concentration]) was calculated (by the Pharsight programme) after subcutaneous administration, typically until 240-288 hours post dosing, or until last measured concentration. The AUC was calculated and given as AUCinf-pred and dose normalized.
Results of co-formulation studies in LYD-pigs are summarized below

The nature of data set [2]: Assay (XVII) T½ and subcutaneous bioavailability in Beagle dogs. It counts as in vivo. On the procedure:
The area under the plasma concentration versus time curve (AUC, [time×concentration]) was calculated (by the Pharsight programme) after both subcutaneous administration and intravenous administration, typically until 240-288 hours post dosing, or until last measured concentration. The AUC was calculated by extrapolating to infinity and dose normalized. The absolute bioavailability (F %) was then calculated based on the dose-corrected AUC values, namely as AUC/Dsc divided by AUC/Div×100, where Dsc is the subcutaneous dose per kg, and Div the dose per kg given intravenously. Assay (XVII)—Determination of T½ and Subcutaneous Bioavailability in Beagle Dogs […]
By protraction is meant the prolongation of the time in the body and thereby the time of action of the mimylin derivatives. This was done in PK studies, where the terminal half-life of the derivative in question was determined following i.v. administration. By terminal half-life is generally meant the period of time it takes to halve a certain plasma concentration, measured after the initial distribution phase. […]
The plasma concentration of the respective mimylin derivative was analysed using LC-MS. Individual plasma concentration-time profiles were analysed by a non-compartmental model in Phoenix WinNonlin version 6.3 (Pharsight Inc., Mountain View, Calif., USA). […]

The mark [3] stands for this setting: Co-formulation liraglutide + Ex #2.

Structures are written as SMILES. Peptide text beside a SMILES is read from it. * marks the point of attachment. C18 diacid = O=C(O)CCCCCCCCCCCCCCCCC(=O)*

With `CC(C)C[C@H](NC(=O)[C@H](C)NC(=O)[C@H](C)NC(=O)[C@@H](NC(=O)[C@H](CO)NC(=O)[C@H](CC(C)C)NC(=O)[C@H](CCC(=O)O)NC(=O)[C@H](CO)NC(=O)[C@H](C)NC(=O)[C@H](CCC(=O)O)NC(=O)CCCCCCCCCCCCCCCCC(=O)O)[C@@H](C)O)C(=O)NCC(=O)N[C@@H](CCCNC(=N)N)C(=O)N[C@@H](CC(C)C)C(=O)N[C@@H](CO)C(=O)N[C@@H](C)C(=O)N[C@@H](CCC(=O)O)C(=O)N[C@@H](CC(C)C)C(=O)N[C@@H](Cc1cnc[nH]1)C(=O)N[C@@H](CCC(=O)O)C(=O)N[C@@H](CC(C)C)C(=O)N[C@@H](C)C(=O)N[C@H](C(=O)N[C@@H](CC(C)C)C(=O)N1CCC[C@H]1C(=O)N[C@@H](CCCNC(=N)N)C(=O)N[C@H](C(=O)N[C@@H](CCC(=O)O)C(=O)N[C@H](C(=O)NCC(=O)N1CCC[C@H]1C(=O)N[C@@H](CCC(=O)O)C(=O)N[C@@H](CO)C(=O)N1CCC[C@H]1C(N)=O)[C@@H](C)O)[C@@H](C)O)[C@@H](C)O` [Ex. #2, [N-terminal(C18 diacid)]mimylin] ({C18 diacid}-EASELSTAALGRLSAELHELATLPRTETGPESP-NH2), in data set [1] (Co-dosing liraglutide + Ex #2), the “AUC/D” value is 712 kg·h/L, the “Cmax/D” value is recorded as 6.9 kg/L and the “T½” value was 67 h. Moreover, in data set [1] (setting [3]), the “AUC/D” value came out at 732 kg·h/L, the “Cmax/D” value was 5.8 kg/L and the “T½” value came to 67 h. Moreover, the “effect on PK profile of the co-formulated peptide” value in data set [1] (administered as co-formulations to LYD pigs) is “do not affect the PK profile of liraglutide”. For the same compound, the “Subcutaneous bioavailability (%)” value in data set [2] (Beagle dogs) is listed as 98%. The “Beagle dogs iv PK, t½” value in data set [2] (i.v., harmonic mean, n = 2) is 95 h.
